Tested on: IL-1β secretion, THP-1 cells
Assay: IL-1β secretion assay in PMA-differentiated THP-1 cells stimulated with LPS and nigericin (ELISA readout)
Type: cell-based
Settings: Homo sapiens, THP-1, inhibition of IL-1β secretion, 25 ng/mL LPS then nigericin
Description: Compounds as provided herein were tested in the following assay. Cell culture medium employed contained RPMI 1640 medium (89%), FBS (10%), Pen/Strep (1%), and 2-mercaptoethanol (0.05 mM). Freezing medium was made up of 90% FBS and 10% DMSO. THP-1 cells were removed from the liquid nitrogen and placed into a 37° C. water bath to thaw, until signs of ice dissipated. The cells were then added to 9 mL of warm cell culture medium and centrifuged for 5 minutes at 1000 rpm. The supernatant was discarded, and the cells were resuspended in new cell culture medium. THP-1 cells were then split and cultured in the cell culture medium, being passaged every 2-3 days with the cell density will be maintained between 5×10^5 and 1.5×10^6 viable cells/mL.
PMA was dissolved in DMSO to make a stock solution at 5 mg/ml and stored in 10 µl aliquots at -20° C. for single use. PMA is added to normal growth medium. LPS was diluted with 1 mL of water solution to provide a 1 mg/mL stock solution and stored in 15 µl aliquots at -20° C. for single use. Nigericin is diluted in ice cold 100% ethanol to 5 mg/ml (6.7 mM) and stored in 75 µL aliquots at -20° C. for single use. Serum-free media contains RPMI 1640 medium (99%), Pen/Strep (1%), and 2-mercaptoethanol (0.05 mM). The two control conditions used to qualify and normalize test compound dose-response curves were as follows: High Control = 25 ng/mL LPS, 5 µM Nigericin, 0.5% DMSO, Low Control = 25 ng/mL, LPS, 0.5% DMSO.
THP-1 cells were diluted to provide a suspension at a concentration of 1.0×10^6 cells/mL with the total volume of suspension required to enable the desired number of assay plates. The growth media was supplemented with PMA (5 ng/mL final concentration) and the cells were incubated at 37° C. under a humidified atmosphere of 5% CO2 for 40 h.
All media was carefully aspirated from each culture flask. The cells were washed carefully with 1x DPBS. The cells were then briefly digested with trypsin LE for 5 minutes at 23° C. and immediately resuspended in cell growth media. After resuspension, the cells were centrifuged at 1000 rpm for 3 minutes and the supernatant was discarded. The cells were resuspended in DPBS and once again centrifuged at 1000 rpm for 5 minutes. The supernatant was discarded and the cell pellet was resuspended in serum-free media supplemented with LPS (25 ng/mL final concentration) to enable the distribution of 30 K THP-1 cells within 45 µL of media into each well of 384-well PDL-coated plates. The 384-well plates were then incubated at 37° C. under a humidified atmosphere of 5% CO2 for 2 h. Following this period, test compounds were dispensed by Tecan across the desired concentration range with all wells normalized to a final 0.5 % DMSO concentration. The plates were then then incubated at 37° C. under a humidified atmosphere of 5% CO2 for 1 h. Following this period, 5 µL of the […] nigericin stock solution was added to each of the appropriate wells and plates were centrifuged at 1000 rpm for 30 seconds. The plates were the immediately reintroduced to the incubator at 37° C. under a humidified atmosphere of 5% CO2 for 2 h. After this time, 35 µL/well of supernatant was collected and transferred into v-bottom plate and centrifuged at 1000 rpm for 1 minute. These supernatant aliquots were analyzed using an IL-Iβ detection kit as described below. If needed, the test samples could be snap frozen and stored at -80° C. until analyzed.
To prepare each ELISA plate, capture antibody (mAb Mt175) was diluted with PBS to a final concentration of 2 µg/mL and then 20 µL of this solution was added to each well of the ELISA plate. Each plate was allowed to incubate overnight at 4° C. The next day, the capture antibody solution was removed and discarded. Each ELISA plate was washed 4 times with PBST followed by the addition of 25 µL/well of blocking buffer (Licor-927-40010) supplemented with 0.1% Tween 20. Each ELISA plate was then allowed to incubate for 1 hour at 23° C. […]

Row | SMILES | IC50 (class column of Table 3) [nM] | IC50 (numeric column of Table 3) [nM]
1 | CSc1ccc2c(=O)n(CC(=O)Nc3ncncc3F)nc(C(C)C)c2n1 [Example 23, N-(5-fluoropyrimidin-4-yl)-2-(2-methylsulfanyl-5-oxo-8-propan-2-ylpyrido[2,3-d]pyridazin-6-yl)acetamide] | < 10000 | 2070
2 | CC(C)c1nn(CC(=O)Nc2ncncc2F)c(=O)c2ccc(C(F)(F)F)nc12 [Example 24, N-(5-fluoropyrimidin-4-yl)-2-[5-oxo-8-propan-2-yl-2-(trifluoromethyl)pyrido[2,3-d]pyridazin-6-yl]acetamide] | < 10000 | 138
3 | O=C(Cn1nc(C(F)F)c2cc(C(F)(F)F)ccc2c1=O)Nc1ncc(F)cn1 [Example 25, 2-[4-(difluoromethyl)-1-oxo-6-(trifluoromethyl)phthalazin-2-yl]-N-(5-fluoropyrimidin-2-yl)acetamide] | < 10000 | 689
4 | O=C(Cn1nc(C(F)F)c2c(F)c(Br)ccc2c1=O)Nc1ncc(F)cn1 [Example 26, 2-[6-bromo-4-(difluoromethyl)-5-fluoro-1-oxophthalazin-2-yl]-N-(5-fluoropyrimidin-2-yl)acetamide] | < 10000 | 78
5 | O=C(Cn1nc(C(F)F)c2c(F)c(Br)ccc2c1=O)Nc1ncccn1 [Example 27, 2-[6-bromo-4-(difluoromethyl)-5-fluoro-1-oxophthalazin-2-yl]-N-pyrimidin-2-ylacetamide] | < 10000 | 137
6 | N#Cc1cnc(NC(=O)Cn2nc(C(F)F)c3c(F)c(Br)ccc3c2=O)c(F)c1 [Example 28, 2-[6-bromo-4-(difluoromethyl)-5-fluoro-1-oxophthalazin-2-yl]-N-(5-cyano-3-fluoropyridin-2-yl)acetamide] | < 10000 | 307
7 | COc1ccc(NC(=O)Cn2nc(C(C)C)c3cc(Br)ccc3c2=O)cn1 [Example 29, 2-(6-bromo-1-oxo-4-propan-2-ylphthalazin-2-yl)-N-(6-methoxypyridin-3-yl)acetamide] | < 10000 | 286
8 | CC(C)c1nn(CC(=O)Nc2ccc(Cl)nc2)c(=O)c2ccc(Br)cc12 [Example 30, 2-(6-bromo-1-oxo-4-propan-2-ylphthalazin-2-yl)-N-(6-chloropyridin-3-yl)acetamide] | < 10000 | 519
9 | Cc1ncc(F)c(NC(=O)Cn2nc(C(C)C)c3cc(Br)ccc3c2=O)n1 [Example 31, 2-(6-bromo-1-oxo-4-propan-2-ylphthalazin-2-yl)-N-(5-fluoro-2-methylpyrimidin-4-yl)acetamide] | < 10000 | 1320
10 | COc1nn(CC(=O)Nc2ncc(F)cn2)c(=O)c2ccc(Br)cc12 [Example 32, 2-(6-bromo-4-methoxy-1-oxophthalazin-2-yl)-N-(5-fluoropyrimidin-2-yl)acetamide] | < 10000 | 128
11 | CC(C)c1nn(CC(=O)Nc2ccncn2)c(=O)c2ccc(Br)cc12 [Example 33, 2-(6-bromo-1-oxo-4-propan-2-ylphthalazin-2-yl)-N-pyrimidin-4-ylacetamide] | < 10000 | 176
12 | CC(C)c1nn(CC(=O)Nc2ccnc(C(F)(F)F)n2)c(=O)c2ccc(Br)cc12 [Example 34, 2-(6-bromo-1-oxo-4-propan-2-ylphthalazin-2-yl)-N-[2-(trifluoromethyl)pyrimidin-4-yl]acetamide] | < 10000 | 1890
13 | CC(C)c1nn(CC(=O)Nc2ncccc2F)c(=O)c2ccc(Br)cc12 [Example 35, 2-(6-bromo-1-oxo-4-propan-2-ylphthalazin-2-yl)-N-(3-fluoropyridin-2-yl)acetamide] | < 10000 | 529
14 | CC(C)c1nn(CC(=O)Nc2nc(Cl)ccc2F)c(=O)c2ccc(Br)cc12 [Example 36, 2-(6-bromo-1-oxo-4-propan-2-ylphthalazin-2-yl)-N-(6-chloro-3-fluoropyridin-2-yl)acetamide] | < 10000 | 2800
15 | CC(C)c1nn(CC(=O)Nc2c(F)cncc2F)c(=O)c2ccc(Br)cc12 [Example 37, 2-(6-bromo-1-oxo-4-propan-2-ylphthalazin-2-yl)-N-(3,5-difluoropyridin-4-yl)acetamide] | < 10000 | 4950
16 | CC(C)c1nn(CC(=O)Nc2ncccn2)c(=O)c2ccc(Br)cc12 [Example 39, 2-(6-bromo-1-oxo-4-propan-2-ylphthalazin-2-yl)-N-pyrimidin-2-ylacetamide] | < 10000 | 54
17 | CC(C)c1nn(CC(=O)Nc2ncc(C(F)(F)F)cc2F)c(=O)c2ccc(Br)cc12 [Example 41, 2-(6-bromo-1-oxo-4-propan-2-ylphthalazin-2-yl)-N-[3-fluoro-5-(trifluoromethyl)pyridin-2-yl]acetamide] | < 10000 | 163
18 | CC(C)c1nn(CC(=O)Nc2ccc(C(F)(F)F)nc2)c(=O)c2ccc(Br)cc12 [Example 45, 2-(6-bromo-1-oxo-4-propan-2-ylphthalazin-2-yl)-N-[6-(trifluoromethyl)pyridin-3-yl]acetamide] | < 10000 | 1190
19 | CC(C)c1nn(CC(=O)Nc2ccnn2C)c(=O)c2ccc(Br)cc12 [Example 49, 2-(6-bromo-1-oxo-4-propan-2-ylphthalazin-2-yl)-N-(2-methylpyrazol-3-yl)acetamide] | < 10000 | 1700

The next lines start with the values.

Row | IC50 (class column of Table 3) [nM] | IC50 (numeric column of Table 3) [nM] | SMILES
20 | < 10000 | 913 | CC(C)c1nn(CC(=O)Nc2ncc(F)cc2F)c(=O)c2ccc(Br)cc12 [Example 38, 2-(6-bromo-1-oxo-4-propan-2-ylphthalazin-2-yl)-N-(3,5-difluoropyridin-2-yl)acetamide]
21 | < 10000 | 1060 | CC(C)c1nn(CC(=O)Nc2nc(F)ccc2F)c(=O)c2ccc(Br)cc12 [Example 40, 2-(6-bromo-1-oxo-4-propan-2-ylphthalazin-2-yl)-N-(3,6-difluoropyridin-2-yl)acetamide]
22 | < 10000 | 3350 | CC(C)c1nn(CC(=O)NC2CCC(F)(F)C2)c(=O)c2ccc(Br)cc12 (stereo not drawn) [Example 42, 2-(6-bromo-1-oxo-4-propan-2-ylphthalazin-2-yl)-N-(3,3-difluorocyclopentyl)acet amide]
23 | < 10000 | 4230 | CC1CC(NC(=O)Cn2nc(C(C)C)c3cc(Br)ccc3c2=O)CCO1 (stereo not drawn) [Example 43, 2-(6-bromo-1-oxo-4-propan-2-ylphthalazin-2-yl)-N-(2-methyloxan-4-yl)acetamide]
24 | 10000 to 15000 | 12300 | CC(C)c1nn(CC(=O)NC2(C)CCOCC2)c(=O)c2ccc(Br)cc12 [Example 44, 2-(6-bromo-1-oxo-4-propan-2-ylphthalazin-2-yl)-N-(4-methyloxan-4-yl)acetamide]
25 | < 10000 | 1170 | CC(C)c1nn(CC(=O)NC2CCCC2(F)F)c(=O)c2ccc(Br)cc12 (stereo not drawn) [Example 46, 2-(6-bromo-1-oxo-4-propan-2-ylphthalazin-2-yl)-N-(2,2-difluorocyclopentyl)acet amide]
26 | < 10000 | 2550 | CC(C)c1nn(CC(=O)NC2CCc3nncn3C2)c(=O)c2ccc(Br)cc12 (stereo not drawn) [Example 47, 2-(6-bromo-1-oxo-4-propan-2-ylphthalazin-2-yl)-N-(5,6,7,8-tetrahydro-[1,2,4]triazolo[4,3-a]pyridin-6-yl)acetamide]
27 | < 10000 | 4090 | CC(C)c1nn(CC(=O)Nc2cnn(C3CCC3)c2)c(=O)c2ccc(Br)cc12 [Example 48, 2-(6-bromo-1-oxo-4-propan-2-ylphthalazin-2-yl)-N-(1-cyclobutylpyrazol-4-yl)acetamide]

From US20230357162A1, “COMPOUNDS, COMPOSITIONS AND METHODS” (Denali Therapeutics Inc., priority 2020, published 2023)
